The values below come from patent publication US5928910A, “Antifungal substances BE-49385 and process for their production” (Banyu Pharmaceutical Co., Ltd., priority 1995, dated 1999).

One series is described as follows: Solubility. The series is classed as physicochemical.
In series [1] the test system is Candida albicans IFO 1270. In words: MIC by agar dilution method, Candida albicans IFO 1270. Type of series: cell-based. Particulars: IFO1270, 72 h, 28° C., 3 days, read-out: MIC (minimum inhibitory concentration). Here is the method:
(§1) The minimum inhibitory concentrations of antifungal substances BE-49385 against various fungi were measured. The measurement of MIC was carried out by an agar dilution method using a culture medium prepared by mixing 900 ml of an agar solution containing 2.5 g of sterilized dipotassium hydrogenphosphate and 15 g of agar, with a solution obtained by dissolving 6.7 g of a yeast nitrogen base (manufactured by Difico Co.) and 10 g of glucose in 100 ml of purified water, followed by sterilization by means of sterilizing filter. BE-49385 was dissolved in dimethylsulfoxide to a concentration of 10 mg/ml and further diluted with dimethylsulfoxide to obtain a twice diluted series, and the dimethylsulfoxide concentration in the agar plate was adjusted to be 1%. On the prepared agar plate, 5 μl of the test strain solution adjusted to a concentration of 10^6 cells per 1 ml, was dropped, followed by culturing at 28° C. for 3 days, whereupon the growth was evaluated.
(§2) The minimum inhibitory concentrations (MIC, unit: μ g/ml) of antifungal substance BE-49385A against various fungi, are shown in Table 1, and MICs of BE-49385 substances against Schizosaccharomyces pombe IAM4863 are shown in Table

For series [2], the system named is Kluyveromyces lactis IFO 1267. In words: MIC by agar dilution method, Kluyveromyces lactis IFO 1267. The settings on record: IFO1267, 72 h, 28° C., 3 days, read-out: MIC (minimum inhibitory concentration). The series is classed as cell-based. Here is the method: as §1, §2
In series [3] the test system is Schizosaccharomyces pombe IAM4863. Kind of series: MIC by agar dilution method, Schizosaccharomyces pombe IAM4863. Type of series: cell-based. Particulars: 72 h, 28° C., 3 days, read-out: MIC (minimum inhibitory concentration). Here is the method: as §1, §2
The subject of series [4] is Candida albicans IFO 1385. In words: MIC by agar dilution method, Candida albicans IFO 1385. Type of series: cell-based. The settings on record: IFO1385, 72 h, 28° C., 3 days, read-out: MIC (minimum inhibitory concentration). Here is the method: as §1, §2
In series [5] the test system is Saccharomyces cerevisiae IFO 1267. In words: MIC by agar dilution method, Saccharomyces cerevisiae IFO 1267. The series is classed as cell-based. The settings on record: IFO1267, 72 h, 28° C., 3 days, read-out: MIC (minimum inhibitory concentration). Here is the method: as §1, §2
Series [6] has as its system Aspergillus niger IFO 31012. In words: MIC by agar dilution method, Aspergillus niger IFO 31012. The series is classed as cell-based. The settings on record: IFO31012, 72 h, 28° C., 3 days, read-out: MIC (minimum inhibitory concentration). Here is the method:
as §1, §2

Series [7] has as its system Penicillium chrysogenum IFO 6223. Kind of series: MIC by agar dilution method, Penicillium chrysogenum IFO 6223. The series is classed as cell-based. The settings on record: IFO6223, 72 h, 28° C., 3 days, read-out: MIC (minimum inhibitory concentration). Here is the method: as §1, §2

Molecules are shown by their SMILES. In brackets after ≈: the same amount, converted by molar mass. Where only a bound is given, the exact number is not on record here.

On to `C=C1C2CC3C(C(C)C)C(OC(=O)CC(C)(O)CC(C)CC)CC3(C)CC2C(C)=CCC2C(C)OC(=O)C(OC(C)=O)C12O` (stereo not drawn) [BE-49385A-Ac], for which, in “Solubility”, the “Solubility in an organic solvent such as methanol or dimethylsulfoxide” value (“Solubility in an organic solvent such” for short) is listed as “Readily soluble” and the Solubility in water entry was “hardly soluble”.
Take `C=C1C2CC3C(C(C)C)C(OC(=O)CC(C)(O)CC(C)CC)CC3(C)CC2C(C)=CCC2C(C)OC(=O)C(O)C12O` (stereo not drawn) [BE-49385A]: the MIC in series [1] is 0.78 µg/mL (≈ 1.36 µM); in series [2], 0.78 µg/mL (≈ 1.36 µM); in series [3] it was under 0.1 µg/mL; in series [4], 3.13 µg/mL (≈ 5.45 µM); in series [5], 3.13 µg/mL (≈ 5.45 µM); in series [6], 0.78 µg/mL (≈ 1.36 µM). In addition, the MIC in series [7] was determined as 0.39 µg/mL (≈ 0.678 µM). Besides, the “Solubility in an organic solvent such” value in “Solubility” is “Readily soluble”. Also, the Solubility in water result in the series “Solubility” was “hardly soluble”.
As for `C=C1C2CC3C(C(C)C)C(OC(=O)C(O)CC(C)CC(C)CC)CC3(C)CC2C(C)=CCC2C(C)OC(=O)C(O)C12O` (stereo not drawn) [BE-49385B], the MIC in series [3] amounted to 0.39 µg/mL (≈ 0.662 µM). Further, in the series “Solubility”, the “Solubility in an organic solvent such” value is “Readily soluble” and the Solubility in water entry is “hardly soluble”.
Regarding `C=C1C2CC3C(C(C)C)C(OC(=O)CC(C)CC(C)CC)CC3(C)CC2C(C)=CCC2C(C)OC(=O)C(O)C12O` (stereo not drawn) [BE-49385C], in series [3], the MIC was 0.39 µg/mL (≈ 0.698 µM). Further, in “Solubility”, the “Solubility in an organic solvent such” value is reported as “Readily soluble” and the Solubility in water result is on record as “hardly soluble”.
Taken in the same sequence, the figures for `C=C1C2CC3C(C(C)C)C(OC(=O)C(O)c4ccccc4)CC3(C)CC2C(C)=CCC2C(C)OC(=O)C(O)C12O` (stereo not drawn) [BE-49385D] were 0.78 µg/mL (≈ 1.41 µM), “Readily soluble” and “hardly soluble”.
Consider `C=C1C2CC3C(C(C)C)C(OC(=O)C(O)C(C)(O)CC(C)CC)CC3(C)CC2C(C)=CCC2C(C)OC(=O)C(O)C12O` (stereo not drawn) [BE-49385E], for which the MIC in series [3] was found to be 0.2 µg/mL (≈ 0.339 µM). Moreover, in the series “Solubility”, the “Solubility in an organic solvent such” value was “Readily soluble” and the Solubility in water result is on record as “hardly soluble”.
Regarding `C=C1C2CC3C(C(C)C)C(O)CC3(C)CC2C(C)=CCC2C(C)OC(=O)C(O)C12O` (stereo not drawn) [BE-49385F], in the series “Solubility”, the “Solubility in an organic solvent such” value is listed as “Readily soluble” and the Solubility in water entry is on record as “hardly soluble”.
Turning to `C=C1C2CC3C(C(C)C)C(OC(=O)C(O)C(O)CCC(C)CC)CC3(C)CC2C(C)=CCC2C(C)OC(=O)C(O)C12O` (stereo not drawn) [BE-49385G], the MIC in series [3] is 0.39 µg/mL (≈ 0.66 µM). In the series “Solubility”, the “Solubility in an organic solvent such” value is “Readily soluble” and the Solubility in water result is on record as “hardly soluble”.
With `C=C1C2CC3C(C(C)C)C(OC(=O)C(O)C(O)C(C)CC(C)CC)CC3(C)CC2C(C)=CCC2C(C)OC(=O)C(O)C12O` (stereo not drawn) [BE-49385H], in “Solubility”, the “Solubility in an organic solvent such” value is “Readily soluble” and the Solubility in water entry is “hardly soluble”.
